Test system: T1, MaBGA (β-galactosidase from Marinomonas sp. BSi20414)
T1 construct: native enzyme purified from the wild-type strain (ammonium sulfate, HiTrap DEAE FF); GH42; catalytic Glu142 and Glu314; no tag
Experiment: release of o-nitrophenol at […] nm, nonlinear Michaelis-Menten fit
Assay type: biochemical
Conditions: apparent Km; 50 mM PBS pH 7.0 (standard assay); ONPG 0.1-19 mM; temperature not given

## O=[N+]([O-])c1ccccc1O[C@@H]1O[C@H](CO)[C@H](O)[C@H](O)[C@H]1O [ONPG, o-nitrophenyl-β-D-galactopyranoside]
  Km: 14.2 mM

Reference: PMC5295233, “Biochemical and Structural Insights into a Novel Thermostable β-1,3-Galactosidase from Marinomonas sp. BSi20414” (Marine Drugs, 2017)
